Structures can show the parent of a compound that is named as a salt.
system: 3T3 L1 fibroblasts; experiment: Glucose transport activity assay (14C-2-deoxy-D-glucose uptake); type: cell-based; conditions: EC (effective concentration) for increase in glucose transport; 14C-2-deoxy-D-glucose, 3T3 L1 cells; read-out: Concentration (μM) to reach >150% activity of vehicle control
Description: Glucose Transport Activity Assay.
Stimulation of the insulin receptor leads to the transport of glucose from the blood into cells, thus modulating blood glucose levels. 3T3 L1 fibroblasts (ATCC) were grown in Dulbecco's modified Eagle's medium (DMEM) with 10% fetal bovine serum (FBS). The cells were plated at a density of 3×10^4 cells/well in 24-well plates. Two days after confluence was reached, the cells were treated for 3 days with 0.5 mM isobutylmethylxanthine (IBMX), 1 μM dexamethasone, and 1.7 μM insulin. The cells were then transferred to DMEM with 10% FBS and supplemented with 1.7μM insulin for 2 more days. The cells were maintained in DMEM with 10% FBS for an additional 4 days. Finally the cells were serum-starved overnight in 0.1% bovine serum albumin (BSA) in DMEM.
The following day, the medium was replaced with 150 mM NaCl, 1.7 mM KCl, 0.9 mM CaCl2, K2HPO4 (pH 7.4) to which were added either the experimental compounds or their vehicle (DMSO). Insulin or its vehicle (0.01% BSA) was diluted in the assay buffer (containing test compound or vehicle, respectively) to final concentration of […]. After incubation for 30 min at 37° C., 5 μCi/ml ^14C-2-deoxy-D-glucose was added, and the incubation was continued for additional 30 min at 37° C. The cells were then washed 3 times with ice-cold PBS/20 mM glucose and lysed in 250 μl of lysis buffer (50 mM HEPES pH 7.6, 1% Triton X-100) for 30 min at room temperature. Radioactivity in the lysate was quantified by scintillation counting.
Once ^14C-2-deoxy-D-glucose is transported into the cell, it is not released. Glucose transport is, therefore, proportional to the amount of radioactivity in the lysate. The concentration of compound necessary to produce an increase in glucose transport to greater than 150% of the vehicle control (generally representing the sum of the standard deviation of the vehicle control plus the largest standard deviation of a test sample) was recorded as the EC (effective concentration). Shown in FIG. 3 is glucose uptake by cells at various concentrations when treated with Compound 13 and Compound 15.

SMILES | EC (150% of vehicle control) [µM]
COC(=O)c1cc(S(=O)(=O)Nc2ccc3ccc(NC(=NC#N)Nc4ccc5ccc(NS(=O)(=O)c6ccc(Cl)c(C(=O)OC)c6)cc5c4)cc3c2)ccc1Cl [Compound 165, methyl 5-[({7-[((1E)-2-aza-1-{[7-({[4-chloro-3-(methoxycarbonyl)phenyl]sulfonyl}amino)(2-naphthyl)]amino}-2-cyanovinyl)amino](2-naphthyl)}amino)sulfonyl]-2-chlorobenzoate] | 3.2
CN=C(Nc1ccc2ccc(NS(=O)(=O)c3ccc(Cl)c(C(=O)OC)c3)cc2c1)Nc1ccc2ccc(NS(=O)(=O)c3ccc(Cl)c(C(=O)OC)c3)cc2c1 [Compound 161, methyl 5-[({7-[((1E)-2-aza-1-{[7-({[4-chloro-3-(methoxycarbonyl)phenyl]sulfonyl}amino)(2-naphthyl)]amino}prop-1-enyl)amino](2-naphthyl)}amino)sulfonyl]-2-chlorobenzoate] | >32
N#CN=C(Nc1ccc2ccc(NS(=O)(=O)c3ccc(Cl)c(C(=O)O)c3)cc2c1)Nc1ccc2ccc(NS(=O)(=O)c3ccc(Cl)c(C(=O)O)c3)cc2c1 [Compound 166, 5-({[7-({(1E)-2-aza-1-[(7-{[(3-carboxy-4-chlorophenyl)sulfonyl]amino}(2-naphthyl))amino]-2-cyanovinyl}amino)(2-naphthyl)]amino}sulfonyl)-2-chlorobenzoic acid] | 3.2

same assay, conditions: Mus musculus, 3T3-L1, read-out: Concentration (μM) to reach >150% activity of vehicle control

SMILES | EC (150% of vehicle control) [µM]
O=C(Nc1ccc2ccc(S(=O)(=O)Nc3ccc([N+](=O)[O-])c(C(=O)O)c3)cc2c1)Nc1ccc2ccc(S(=O)(=O)Nc3ccc([N+](=O)[O-])c(C(=O)O)c3)cc2c1 [Compound 38, 5-{[(7-{[N-(7-{[(3-carboxy-4-nitrophenyl)amino]sulfonyl}(2-naphthyl))carbamoyl]amino}(2-naphthyl))sulfonyl)amino}-2-nitrobenzoic acid] | 3.2
CN(c1cccc(S(=O)(=O)O)c1)S(=O)(=O)c1ccc2ccc(NC(=O)Nc3ccc4ccc(S(=O)(=O)N(C)c5cccc(S(=O)(=O)O)c5)cc4c3)cc2c1 [Compound 103, 3-{methyl[(7-{[(7-{[methyl(3-sulfophenyl)amino]sulfonyl}(2-naphthyl))amino]-carbonylamino}-(2-naphthyl))sulfonyl]amino}benzenesulfonic acid dipotassium salt] | 3.2
CCOP(=O)(O)c1cccc(NS(=O)(=O)c2ccc3ccc(NC(=O)Nc4ccc5ccc(S(=O)(=O)Nc6cccc(P(=O)(O)OCC)c6)cc5c4)cc3c2)c1 [Compound 71, N-[7-({[3-(ethoxy(hydroxyphosphoryl))phenyl]amino}sulfonyl)(2-naphthyl)]{[7-({[3-(ethoxy(hydroxyphosphoryl))phenyl]amino}sulfonyl)(2-naphthyl)]amino}carboxamide] | 3.2

same assay, conditions: Mus musculus; EC (effective concentration) for increase in glucose transport; 14C-2-deoxy-D-glucose, 3T3 L1 cells; read-out: Concentration (μM) to reach >150% activity of vehicle control

SMILES | EC (150% of vehicle control) [µM]
O=C(Nc1ccc2ccc(S(=O)(=O)Nc3cccc(O)c3)cc2c1)Nc1ccc2ccc(S(=O)(=O)Nc3cccc(O)c3)cc2c1 [Compound 81, N-(7-{[(3-hydroxyphenyl)amino]sulfonyl}(2-naphthyl))[(7-{[(3-hydroxyphenyl)amino]sulfonyl}(2-naphthyl))amino]carboxamide] | 3.2
O=C(Nc1ccc2ccc(S(=O)(=O)Nc3cnccn3)cc2c1)Nc1ccc2ccc(S(=O)(=O)Nc3cnccn3)cc2c1 [Compound 80, N-{7-[(pyrazin-2-ylamino)sulfonyl](2-naphthyl)}({7-[(pyrazin-2-ylamino)sulfonyl](2-naphthyl)}amino)carboxamide] | 3.2
O=C(Nc1ccc2ccc(S(=O)(=O)O)cc2c1)Nc1ccc2ccc(S(=O)(=O)Nc3ccc(O)c(C(=O)O)c3)cc2c1 [Compound 32, 2-hydroxy-5-{[(7-{[N-(7-sulfo(2-naphthyl))carbamoyl]amino}(2-naphthyl))sulfonyl]amino}benzoic acid] | 32
O=C(Nc1ccc2ccc(S(=O)(=O)O)cc2c1)Nc1ccc2ccc(S(=O)(=O)Nc3ncccn3)cc2c1 [Compound 78, 7-[({7-[(pyrimidin-2-ylamino)sulfonyl]-2-naphthyl}amino)carbonylamino]naphthalene-2-sulfonic acid] | 10
O=C(Nc1ccc2ccc(S(=O)(=O)Nc3ncccn3)cc2c1)Nc1ccc2ccc(S(=O)(=O)Nc3ncccn3)cc2c1 [Compound 79, N-{7-[(pyrimidin-2-ylamino)sulfonyl](2-naphthyl)}({7-[(pyrimidin-2-ylamino)sulfonyl](2-naphthyl)}amino)carboxamide] | 10
O=C(Nc1ccc2c(O)cc(S(=O)(=O)Nc3cc(C(=O)O)ccc3Cl)cc2c1)Nc1ccc2c(O)cc(S(=O)(=O)Nc3cc(C(=O)O)ccc3Cl)cc2c1 [Compound 60, 3-{[(7-{[N-(7-{[(3-carboxy-6-chlorophenyl)amino]sulfonyl}-5-hydroxy(2-naphthyl))carbamoyl]amino}-4-hydroxy(2-naphthyl))sulfonyl]amino}-4-chlorobenzoic acid] | > 32
O=C(Nc1ccc2c(O)cc(S(=O)(=O)Nc3ccccc3C(=O)O)cc2c1)Nc1ccc2c(O)cc(S(=O)(=O)Nc3ccccc3C(=O)O)cc2c1 [Compound 47, 2-{[(7-{[N-(7-{[(2-carboxyphenyl)amino]sulfonyl}-5-hydroxy(2-naphthyl))carbamoyl]amino}-4-hydroxy-2-naphthyl)sulfonyl]amino}benzoic acid] | 3.2
O=C(Nc1ccc2ccc(S(=O)(=O)Nc3cccc(S(=O)(=O)O)c3)cc2c1)Nc1ccc2ccc(S(=O)(=O)Nc3cccc(S(=O)(=O)O)c3)cc2c1 [Compound 114, 3-{[(7-{[N-(7-{[(3-sulfophenyl)amino]sulfonyl}-2-naphthyl)carbamoyl]amino}-2-naphthyl)sulfonyl]amino}benzenesulfonic acid disodium salt] | 3.2
N#Cc1cccc(NS(=O)(=O)c2ccc3ccc(NC(=O)Nc4ccc5ccc(S(=O)(=O)Nc6cccc(C#N)c6)cc5c4)cc3c2)c1 [Compound 83, N-(7-{[(3-cyanophenyl)amino]sulfonyl}(2-naphthyl))[(7-{[(3-cyanophenyl)amino]sulfonyl}(2-naphthyl))amino]carboxamide] | 3.2
O=C(Nc1ccc2ccc(S(=O)(=O)Nc3cccc(C(=O)O)c3O)cc2c1)Nc1ccc2ccc(S(=O)(=O)Nc3cccc(C(=O)O)c3O)cc2c1 [Compound 31, 3-{[(7-{[N-(7-{[(3-carboxy-2-hydroxyphenyl)amino]sulfonyl}(2-naphthyl))carbamoyl]amino}(2-naphthyl))sulfonyl]amino}-2-hydroxybenzoic acid] | 3.2
O=C(O)Cc1cccc(NS(=O)(=O)c2cc(O)c3ccc(NC(=O)Nc4ccc5c(O)cc(S(=O)(=O)Nc6cccc(CC(=O)O)c6)cc5c4)cc3c2)c1 [Compound 52, 2-[3-({[7-({[7-({[3-(carboxymethyl)phenyl]amino}sulfonyl)-5-hydroxy(2-naphthyl)]amino}carbonylamino)-4-hydroxy-2-naphthyl]sulfonyl}amino)phenyl]acetic acid] | 3.2
O=C(Nc1ccc2ccc(S(=O)(=O)Nc3ccc(Br)c(C(=O)O)c3)cc2c1)Nc1ccc2ccc(S(=O)(=O)Nc3ccc(Br)c(C(=O)O)c3)cc2c1 [Compound 56, 2-bromo-5-{[(7-{[N-(7-{[(4-bromo-3-carboxyphenyl)amino]sulfonyl}(2-naphthyl))carbamoyl]amino}(2-naphthyl))sulfonyl]amino}benzoic acid] | 3.2
O=C(Nc1ccc2ccc(NS(=O)(=O)c3cccc(C(=O)O)c3)cc2c1)Nc1ccc2ccc(NS(=O)(=O)c3cccc(C(=O)O)c3)cc2c1 [Compound 129, 3-{[(7-{[N-(7-{[(3-carboxyphenyl)sulfonyl]amino}-2-naphthyl)carbamoyl]amino}-2-naphthyl)amino]sulfonyl}benzoic acid] | 32
O=C(Nc1ccc2c(O)cc(S(=O)(=O)Nc3cccc(C(F)(F)F)c3)cc2c1)Nc1ccc2c(O)cc(S(=O)(=O)Nc3cccc(C(F)(F)F)c3)cc2c1 [Compound 88, N-[5-hydroxy-7-({[3-(trifluoromethyl)phenyl]amino}sulfonyl)(2-naphthyl)]{[5-hydroxy-7-({[3-(trifluoromethyl)phenyl]amino}sulfonyl)(2-naphthyl)]amino}carboxamide] | > 32
O=C(Nc1ccc2ccc(S(=O)(=O)Nc3cccc(-c4nnn[nH]4)c3)cc2c1)Nc1ccc2ccc(S(=O)(=O)Nc3cccc(-c4nnn[nH]4)c3)cc2c1 [Compound 67, N-(7-{[(3-(1H-1,2,3,4-tetraazol-5-yl)phenyl)amino]sulfonyl}(2-naphthyl))[(7-{[(3-(1H-1,2,3,4-tetraazol-5-yl)phenyl)amino]sulfonyl}(2-naphthyl))amino]carboxamide] | 3.2
